Test results taken from patent US20160039904A1, “STABILIZED SINGLE HUMAN CD4 DOMAINS AND FUSION PROTEINS” (priority 2013, published 2016).

Tests used:
HIV-1 92UG037.8 = test: Pseudotyped HIV-1 neutralization (HOS-CD4-CCR5 cells); type: cell-based; conditions: Table 3; 92UG037.8, clade A, R5
Protocol: (§1) To determine the potency and breadth of HIV-1 neutralization by the D1 mutants, viruses pseudotyped with Envs from HIV-1 isolates representing clades A-E and using either CCR5 (R5) or CXCR4 (X4) or both (R5X4) as a coreceptor were included. Pseudoviruses were derived from 293T cells and a neutralization assay was performed in duplicate using HOS-CD4-CCR5 (for all R5 and dual tropic viruses) or HOS-CD4-CXCR4 cell lines as described in Chen et al., Proc. Natl. Acad. Sci. USA, 105: 17121-17126 (2008)). Luminescence was measured 48 hours post-infection and the percentage neutralization was calculated by the following formula: (1—average RLU of inhibitor-containing wells/average RLU or virus-only wells)×100.

HIV-1 AD8 = test: as above; type: cell-based; conditions: Table 3; AD8, clade B, R5
Protocol: as §1

HIV-1 GXE = test: as above; type: cell-based; conditions: Table 3, clade E, R5
Protocol: as §1

HIV-1 R2 = test: as above; type: cell-based; conditions: Table 3; R2, clade B, R5
Protocol: as §1

HIV-1 IIIB = test: Pseudotyped HIV-1 neutralization (HOS-CD4-CXCR4 cells); type: cell-based; conditions: Table 3, clade B, X4
Protocol: as §1

HIV-1 NL4-3 = test: as above; type: cell-based; conditions: Table 3; NL4-3, clade B, X4
Protocol: as §1

[1] = system: HIV-1 pseudotyped with Envs from different clades; test: Pseudotyped HIV-1 neutralization, means over the panel of Table 3; type: cell-based; conditions: all viruses, <[…] assigned 0.01, 2G12: 10 isolates significantly neutralized
Protocol: as §1

HIV-1 Env Bal = test: HIV-1 Env-mediated cell-cell fusion; type: cell-based; conditions: R5
HIV-1 Bal.EC1 TC = test: TZM-bl cell-based neutralization assay; conditions: Table 6, clade B, R5
HIV-1 BZ167.ec9 = test: TZM-bl cell-based neutralization assay; conditions: Table 6; BZ167.ec9, clade B, X4
HIV-1 GS-015.EC12 = test: TZM-bl cell-based neutralization assay; conditions: Table 6; GS-015.EC12, clade C, R5
HIV-1 PBL286.VRC36aPV = test: TZM-bl cell-based neutralization assay; conditions: Table 6, clade C, R5
HIV-1 57128.VRC18 = test: TZM-bl cell-based neutralization assay; conditions: Table 6; 57128.VRC18, clade D, R5
HIV-1 N1 1046.e3 PV = test: TZM-bl cell-based neutralization assay; conditions: Table 6, clade AE, R5
HIV-1 CAM0015BBY.EC3 = test: TZM-bl cell-based neutralization assay; conditions: Table 6; CAM0015BBY.EC3, clade AG, R5
HIV-1 CH114 = type: cell-based; conditions: Table 7; CH114, clade BC, R5
HIV-1 CNE20 = type: cell-based; conditions: Table 7; CNE20, clade BC, R5
HIV-1 CNE23 = type: cell-based; conditions: Table 7; CNE23, clade BC, R5
HIV-1 CNE47 = type: cell-based; conditions: Table 7; CNE47, clade BC, R5
HIV-1 CNE49 = type: cell-based; conditions: Table 7; CNE49, clade BC, R5
HIV-1 CNE68 = type: cell-based; conditions: Table 7; CNE68, clade BC, R5
HIV-1 CNE1 = type: cell-based; conditions: Table 7; CNE1, clade B′, X4
HIV-1 YN192.31 = type: cell-based; conditions: Table 7; YN192.31, clade AE, R5
HIV-1 GX2010.36 = type: cell-based; conditions: Table 7; GX2010.36, clade AE, R5
[2] = Dynamic light scattering (aggregation); type: physicochemical
Protocol: To test whether soluble aggregates of 4Dm2m and 6Dm2m formed during prolonged incubation, dynamic light scattering (DLS) was used. Proteins concentrated to 10 mg/ml in PBS were stored at […] and slowly thawed on ice before measurements.

[3] = system: HIV-1 primary isolates Bal and JRFL; type: cell-based; conditions: in contrast to D1D2
[4] = Solubility of fusion proteins in PBS (concentration, centrifugation); type: physicochemical
Protocol: To evaluate the potential for further development as drugs, several drug-related properties, including solubility, stability, and aggregation propensity were tested.

[5] = Stability against degradation in PBS at 37° C. (binding activity to gp140Con-s); type: physicochemical
Protocol: The proteins were then assessed for their stability against degradation during 15 days of incubation with PBS (see FIG. 12A) or human serum (see FIG. 12B) at 37° C.

4Dm2m: bispecific multivalent fusion protein of mD1.22 and m36.4; two SEQ ID NO: 20 and two SEQ ID NO: 21 chains
IC50 (HIV-1 92UG037.8): 0.051 ± 0.001 nM
IC90 (HIV-1 92UG037.8): 0.45 ± 0.01 nM
IC50 (HIV-1 AD8): 0.13 ± 0.01 nM
IC90 (HIV-1 AD8): 0.74 ± 0.06 nM
IC50 (HIV-1 GXE): 0.83 ± 0.11 nM
IC90 (HIV-1 GXE): 8.2 ± 1.3 nM
IC50 (HIV-1 R2): 0.028 ± 0.011 nM
IC90 (HIV-1 R2): 0.43 ± 0.18 nM
IC50 (HIV-1 IIIB): 0.037 ± 0.001 nM
IC90 (HIV-1 IIIB): 0.1 ± 0.01 nM
IC50 (HIV-1 NL4-3): 0.094 ± 0.002 nM
IC90 (HIV-1 NL4-3): 0.15 ± 0.02 nM
IC50, arithmetic mean [1]: 0.22 nM
IC50, geometric mean [1]: 0.12 nM
IC90, arithmetic mean [1]: 1.6 nM
IC90, geometric mean [1]: 0.56 nM
IC50 (HIV-1 Env Bal; Table 4, clade B): 4.1 nM
IC50 (HIV-1 Env Bal; Table 5, clade B): 4.1 ± 0.1 nM
IC50 (HIV-1 Bal.EC1 TC): 0.057 nM
IC90 (HIV-1 Bal.EC1 TC): 0.22 nM
IC50 (HIV-1 BZ167.ec9): 0.077 nM
IC90 (HIV-1 BZ167.ec9): 0.5 nM
IC50 (HIV-1 GS-015.EC12): 0.022 nM
IC50 (HIV-1 PBL286.VRC36aPV): 2 nM
IC50 (HIV-1 57128.VRC18): 0.4 nM
IC90 (HIV-1 57128.VRC18): 2.8 nM
IC90 (HIV-1 N1 1046.e3 PV): 27 nM
IC50 (HIV-1 CAM0015BBY.EC3): 0.72 nM
IC90 (HIV-1 CAM0015BBY.EC3): 7.4 nM
IC50 (HIV-1 CH114): 0.11 nM
IC90 (HIV-1 CH114): 4 nM
IC50 (HIV-1 CNE20): 0.05 nM
IC90 (HIV-1 CNE20): 5.3 nM
IC50 (HIV-1 CNE23): 0.49 nM
IC90 (HIV-1 CNE23): 4.9 nM
IC50 (HIV-1 CNE47): 0.11 nM
IC90 (HIV-1 CNE47): 2.8 nM
IC50 (HIV-1 CNE49): 0.05 nM
IC90 (HIV-1 CNE49): 0.56 nM
IC50 (HIV-1 CNE68): 0.11 nM
IC90 (HIV-1 CNE68): 0.78 nM
IC50 (HIV-1 CNE1): 0.11 nM
IC90 (HIV-1 CNE1): 0.61 nM
IC50 (HIV-1 YN192.31): 0.89 nM
IC50 (HIV-1 GX2010.36): 0.11 nM
aggregation propensity [2]: low aggregation propensity
aggregation during incubation (DLS) ([2]; 10 mg/ml in PBS, 4° C. and 37° C.): disappeared within the first day of incubation
average diameter of particles (DLS) ([2]; 10 mg/ml in PBS, after freeze-thaw, predominantly small particles): 16.3 nm
enhancement of HIV-1 infectivity at low concentrations [3]: not enhance HIV-1 infectivity
precipitation on storage ([4]; 4° C. for 2 weeks): no additional precipitation was observed
concentration reached in PBS without visible precipitation after high-speed centrifugation ([4]; PBS): 25000 µg/mL
remained functional ([5]; end of 15 days of incubation with PBS): about 90%
amount of functional protein ([5]; incubation in PBS for 10 days): no significant decrease

enfuvirtide
IC50 (HIV-1 CH114): 102 nM
IC90 (HIV-1 CH114): > 750 nM
IC50 (HIV-1 CNE20): 5.5 nM
IC90 (HIV-1 CNE20): 41 nM
IC50 (HIV-1 CNE23): 15 nM
IC90 (HIV-1 CNE23): 228 nM
IC50 (HIV-1 CNE47): 4.9 nM
IC90 (HIV-1 CNE47): 42 nM
IC50 (HIV-1 CNE49): 9.1 nM
IC90 (HIV-1 CNE49): 236 nM
IC50 (HIV-1 CNE68): 32 nM
IC90 (HIV-1 CNE68): 321 nM
IC50 (HIV-1 CNE1): 1.6 nM
IC90 (HIV-1 CNE1): 17 nM
IC50 (HIV-1 YN192.31): 42 nM
IC90 (HIV-1 YN192.31): 336 nM
IC50 (HIV-1 GX2010.36): 255 nM
IC90 (HIV-1 GX2010.36): > 750 nM
